Results as given in US20180362543A1, “HIV REPLICATION INHIBITOR” (Shionogi & Co., Ltd., priority 2013, published 2018).

Tests used:
[1] = target: T1, human ether-a-go-go related gene (hERG) channel (Homo sapiens, UniProt Q12809); test: hERG test (whole cell patch clamp, IKr); assay type: cell-based; conditions: HEK293 cells expressing hERG channel, concentration not given
T1 construct: expressed in transfected cells; host or cells: HEK293
Text: For the purpose of assessing risk of an electrocardiogram QT interval prolongation, effects on delayed rectifier K+ current (IKr), which plays an important role in the ventricular repolarization process of the compound of the present invention, was studied using HEK293 cells expressing human ether-a-go-go related gene (hERG) channel.
After a cell was retained at a membrane potential of −80 mV by whole cell patch clamp method using an automated patch clamp system (PatchXpress 7000A, Axon Instruments Inc.), IKr induced by depolarization pulse stimulation at +40 mV for 2 seconds and, further, repolarization pulse stimulation at −50 mV for 2 seconds was recorded. […] From the recording IKr, an absolute value of the tail peak current was measured based on the current value at the resting membrane potential using an analysis software (DataXpress ver. 1, Molecular Devices Corporation). Further, the inhibition relative to the tail peak current before application of the test substance was calculated, and compared with the vehicle-applied group (0.1% dimethyl sulfoxide solution) to assess influence of the test substance on IKr.

HIV (HTLV-III B strain) = test: HIV replication inhibition assay (MTT, MT-4 cells); assay type: cell-based; conditions: 4 days culture, concentration at which cell cytotoxicity by virus is inhibited 50%
How it was run: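 MT-4 cells (2.5×10^4/well) infected with HTLV-III B stock (60 pfu) in presence of compound, cultured four days at 37 °C. Viability by MTT reduction, formazan read at 560 and 690 nm. EC50 is concentration inhibiting virus-induced cytotoxicity by 50%.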

CYP2D6 = target: T2, CYP2D6 (Homo sapiens, UniProt P10635); test: CYP inhibition assay, CYP2D6 (dextromethorphan O-demethylation); assay type: in vitro ADME; conditions: pooled human hepatic microsome, 15 minutes, 37° C.
T2 construct: enzyme, pooled human hepatic microsome 0.2 mg protein/mL; from tissue; host or cells: pooled human liver microsomes
Method: (§1) Using commercially available pooled human hepatic microsome, and employing, as markers, 7-ethoxyresorufin O-deethylation (CYP1A2), tolbutamide methyl-hydroxylation (CYP2C9), mephenytoin 4′-hydroxylation (CYP2C19), dextromethorphan O-demethylation (CYP2D6), and terfenedine hydroxylation (CYP3A4) as typical substrate metabolism reactions of human main five CYP enzyme forms (CYP1A2, 2C9, 2C19, 2D6, 3A4), an inhibitory degree of each metabolite production amount by a test compound was assessed. […]
(§2) Each five kinds of substrates, human hepatic microsome, and a test drug in 50 mmol/L Hepes buffer as a reaction solution was added to a 96-well plate as the composition as described above, NADPH, as a cofactor was added to initiate metabolism reactions as markers and, after the incubation at 37° C. for 15 minutes, a methanol/acetonitrile=1/1 (v/v) solution was added to stop the reaction. After the centrifugation at 3000 rpm for 15 minutes, resorufin (CYP1A2 metabolite) in the supernatant was quantified by a fluorescent multilabel counter and tolbutamide hydroxide (CYP2C9 metabolite), mephenytoin 4′ hydroxide (CYP2C19 metabolite), dextrorphan (CYP2D6 metabolite), and terfenadine alcohol (CYP3A4 metabolite) were quantified by LC/MS/MS. […]

[2] = assay type: in vitro ADME; conditions: 0 h
CYP3A4 = target: T3, CYP3A4 (Homo sapiens, UniProt P08684); test: CYP inhibition assay, CYP3A4 (terfenedine hydroxylation); assay type: in vitro ADME; conditions: pooled human hepatic microsome, 15 minutes, 37° C.
T3 construct: enzyme, pooled human hepatic microsome 0.2 mg protein/mL; from tissue; host or cells: pooled human liver microsomes
Method: as §1, §2

[3] = Solubility test (1% DMSO, artificial intestinal juice pH 6.8); assay type: physicochemical; conditions: pH 6.8, 1% DMSO, 16 hours at 25° C.
Method: The solubility of each compound was determined under 1% DMSO addition conditions. A 10 mmol/L solution of the compound was prepared with DMSO, and 6 μL of the solution was added to 594 μL of an artificial intestinal juice (:water and a 118 mL solution of 0.2 mol/L NaOH reagent are added to 250 mL of 0.2 mol/L potassium dihydrogen phosphate reagent to reach 1000 mL) with a pH of 6.8. The mixture is left standing for 16 hours at 25° C., and the mixture is vacuum-filtered. The filtrate is two-fold diluted with methanol/water=1/1 (v/v), and the compound concentration in the filtrate is measured with HPLC or LC/MS/MS by the absolute calibration method.

[4] = tested on: Salmonella typhimurium TA98 strain, TA100 strain; conditions: Salmonella typhimurium TA98 and TA100, with and without metabolism activating condition
Method: The mutagenicity of the compound of the present invention was assayed.
20 μL of freezing-stored rat typhoid bacillus (Salmonella typhimurium TA98 strain, TA100 strain) was inoculated on 10 mL of a liquid nutrient medium (2.5% Oxoid nutrient broth No. 2), and this was cultured before shaking at 37° C. for 10 hours. 9 mL of a bacterial solution of the TA98 strain was centrifuged (2000×g, 10 minutes) to remove a culturing solution. The bacteria was suspended in F buffer (K2HPO4: 3.5 g/L, KH2PO4: 1 g/L, (NH4)2SO4: 1 g/L, trisodium citrate dehydrate: 0.25 g/L, MgSO4.7H2O: 0.1 g/L), and the suspension was added to 110 mL of an Exposure medium (Micro F buffer containing Biotin: 8 μg/mL, histidine: 0.2 μg/mL, glucose: 8 mg/mL). The TA100 strain was added to 120 mL of the Exposure medium per 3.16 mL of the bacterial solution to prepare a test bacterial solution. […] Since a well containing a bacterium which has obtained the proliferation ability by mutation of an amino acid (histidine) synthesizing enzyme gene turns from purple to yellow due to a pH change, the bacterium proliferation well which has turned to yellow in 48 wells per dose is counted, and was assessed by comparing with a negative control group. […]

CYP2C19 = target: T4, CYP2C19 (Homo sapiens, UniProt P33261); test: CYP inhibition assay, CYP2C19 (mephenytoin 4'-hydroxylation); assay type: in vitro ADME; conditions: pooled human hepatic microsome, 15 minutes, 37° C.
T4 construct: enzyme, pooled human hepatic microsome 0.2 mg protein/mL; from tissue; host or cells: pooled human liver microsomes
Method: as §1, §2

CYP1A2 = target: T5, CYP1A2 (Homo sapiens, UniProt P05177); test: CYP inhibition assay, CYP1A2 (7-ethoxyresorufin O-deethylation); assay type: in vitro ADME; conditions: pooled human hepatic microsome, 15 minutes, 37° C.
T5 construct: enzyme, pooled human hepatic microsome 0.2 mg protein/mL; from tissue; host or cells: pooled human liver microsomes
T5 sequence (P05177 1-516): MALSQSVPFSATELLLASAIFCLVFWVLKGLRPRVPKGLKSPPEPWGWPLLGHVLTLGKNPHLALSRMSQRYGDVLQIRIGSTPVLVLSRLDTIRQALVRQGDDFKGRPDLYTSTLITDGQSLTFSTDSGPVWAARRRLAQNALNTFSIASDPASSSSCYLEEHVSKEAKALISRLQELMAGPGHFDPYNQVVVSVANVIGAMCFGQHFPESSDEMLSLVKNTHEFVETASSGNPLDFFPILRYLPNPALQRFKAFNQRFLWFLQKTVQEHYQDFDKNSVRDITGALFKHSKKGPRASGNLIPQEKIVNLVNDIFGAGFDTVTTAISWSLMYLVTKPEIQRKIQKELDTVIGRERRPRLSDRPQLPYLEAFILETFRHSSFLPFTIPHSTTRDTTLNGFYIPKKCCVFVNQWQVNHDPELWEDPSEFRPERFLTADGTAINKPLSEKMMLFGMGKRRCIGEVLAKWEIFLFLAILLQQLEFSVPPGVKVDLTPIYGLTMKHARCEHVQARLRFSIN
Method: as §1, §2

T3 sequence (P08684 whole entry): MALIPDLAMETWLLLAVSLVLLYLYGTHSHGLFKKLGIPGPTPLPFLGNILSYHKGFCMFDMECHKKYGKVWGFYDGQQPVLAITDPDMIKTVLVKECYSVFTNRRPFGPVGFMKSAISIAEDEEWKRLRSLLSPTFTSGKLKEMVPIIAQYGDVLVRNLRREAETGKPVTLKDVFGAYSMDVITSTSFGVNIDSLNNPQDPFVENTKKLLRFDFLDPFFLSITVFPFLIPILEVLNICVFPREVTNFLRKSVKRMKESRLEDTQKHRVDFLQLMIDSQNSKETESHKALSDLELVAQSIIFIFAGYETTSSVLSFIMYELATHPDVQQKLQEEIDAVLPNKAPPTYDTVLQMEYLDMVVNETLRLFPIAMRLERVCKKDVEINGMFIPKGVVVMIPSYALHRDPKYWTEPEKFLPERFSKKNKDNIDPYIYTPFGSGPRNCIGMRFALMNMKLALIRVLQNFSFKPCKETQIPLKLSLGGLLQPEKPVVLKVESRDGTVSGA
T2 sequence (P10635 whole entry): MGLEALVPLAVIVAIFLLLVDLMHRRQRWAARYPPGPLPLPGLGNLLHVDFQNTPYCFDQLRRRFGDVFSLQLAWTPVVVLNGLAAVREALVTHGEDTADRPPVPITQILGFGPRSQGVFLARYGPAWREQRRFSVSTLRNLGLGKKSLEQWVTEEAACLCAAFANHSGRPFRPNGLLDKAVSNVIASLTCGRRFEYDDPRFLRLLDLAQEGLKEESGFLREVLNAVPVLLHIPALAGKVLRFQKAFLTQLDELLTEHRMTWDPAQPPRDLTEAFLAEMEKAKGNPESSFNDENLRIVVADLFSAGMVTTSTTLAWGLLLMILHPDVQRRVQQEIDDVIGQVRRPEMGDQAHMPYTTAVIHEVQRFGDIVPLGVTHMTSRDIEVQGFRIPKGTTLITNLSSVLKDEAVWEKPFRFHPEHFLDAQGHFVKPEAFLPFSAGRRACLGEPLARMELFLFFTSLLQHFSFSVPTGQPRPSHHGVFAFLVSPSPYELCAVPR
T1 sequence (Q12809 whole entry): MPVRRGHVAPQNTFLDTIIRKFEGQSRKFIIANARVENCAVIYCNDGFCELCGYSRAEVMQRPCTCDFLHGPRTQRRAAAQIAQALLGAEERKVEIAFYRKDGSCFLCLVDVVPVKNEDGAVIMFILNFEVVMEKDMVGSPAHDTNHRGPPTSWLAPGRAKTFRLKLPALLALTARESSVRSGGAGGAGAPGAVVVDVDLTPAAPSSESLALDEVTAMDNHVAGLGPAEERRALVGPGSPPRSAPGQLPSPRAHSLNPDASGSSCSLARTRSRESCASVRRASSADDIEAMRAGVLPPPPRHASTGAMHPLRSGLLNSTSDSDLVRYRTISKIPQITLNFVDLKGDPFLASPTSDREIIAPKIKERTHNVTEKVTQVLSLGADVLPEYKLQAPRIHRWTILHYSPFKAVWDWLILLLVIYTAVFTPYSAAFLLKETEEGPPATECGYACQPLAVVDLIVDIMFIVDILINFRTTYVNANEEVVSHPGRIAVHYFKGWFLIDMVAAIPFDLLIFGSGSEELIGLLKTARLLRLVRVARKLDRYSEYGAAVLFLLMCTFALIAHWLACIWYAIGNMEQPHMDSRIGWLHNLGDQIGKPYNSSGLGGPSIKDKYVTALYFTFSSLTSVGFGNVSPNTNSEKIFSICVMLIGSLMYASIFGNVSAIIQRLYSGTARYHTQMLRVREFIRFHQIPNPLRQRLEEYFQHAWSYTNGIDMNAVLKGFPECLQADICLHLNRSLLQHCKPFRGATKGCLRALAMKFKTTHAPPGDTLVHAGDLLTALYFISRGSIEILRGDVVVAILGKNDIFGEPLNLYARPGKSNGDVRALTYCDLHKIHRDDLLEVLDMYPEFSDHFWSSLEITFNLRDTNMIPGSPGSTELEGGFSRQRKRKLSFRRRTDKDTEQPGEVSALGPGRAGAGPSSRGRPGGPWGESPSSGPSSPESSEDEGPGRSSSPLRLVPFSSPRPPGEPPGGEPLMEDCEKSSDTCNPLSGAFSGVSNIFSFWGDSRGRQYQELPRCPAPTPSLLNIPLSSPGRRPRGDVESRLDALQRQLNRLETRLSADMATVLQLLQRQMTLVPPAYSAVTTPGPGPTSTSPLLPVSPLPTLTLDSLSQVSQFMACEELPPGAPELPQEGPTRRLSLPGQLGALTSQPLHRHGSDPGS
T4 sequence (P33261 whole entry): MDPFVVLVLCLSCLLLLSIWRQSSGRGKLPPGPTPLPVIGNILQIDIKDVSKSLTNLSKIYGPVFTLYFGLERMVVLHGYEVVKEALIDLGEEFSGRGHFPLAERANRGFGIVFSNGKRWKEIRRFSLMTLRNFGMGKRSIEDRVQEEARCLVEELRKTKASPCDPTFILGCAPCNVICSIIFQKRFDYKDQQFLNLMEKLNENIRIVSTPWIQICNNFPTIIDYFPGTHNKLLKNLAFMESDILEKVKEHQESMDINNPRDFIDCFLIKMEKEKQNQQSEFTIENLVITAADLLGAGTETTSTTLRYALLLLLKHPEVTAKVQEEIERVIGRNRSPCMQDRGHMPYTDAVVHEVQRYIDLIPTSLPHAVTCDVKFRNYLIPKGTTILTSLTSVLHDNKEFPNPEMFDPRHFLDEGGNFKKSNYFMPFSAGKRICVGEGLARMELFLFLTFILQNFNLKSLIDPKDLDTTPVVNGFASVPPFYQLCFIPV

Row | SMILES | inhibition ratio (hERG, IKr tail peak current) [1] [%] | EC50 (HIV (HTLV-III B strain)) [µM] | IC50 (CYP2D6) [µM] | remaining amount of compound in liver microsomes of rat [2] [%] | IC50 (CYP3A4) [µM] | solubility in the artificial intestinal juice [3] [µM] | mutagenicity [4] | IC50 (CYP2C19) [µM] | IC50 (CYP1A2) [µM]
1 | Cc1c2c(c(C)c(C(OC(C)(C)C)C(=O)O)c1-c1ccc3c(c1)CCCO3)NC(=O)N(Cc1ccccc1)C2 (stereo not shown) [Compound 7] | 2.6 | 0.0096 |  |  |  |  |  |  | 
2 | Cc1c(-c2c(C)c3c(c(C)c2[C@H](OC(C)(C)C)C(=O)O)NS(=O)(=O)Cc2ccccc2-3)ccc2c1CCCO2 [Compound 10] |  | 0.0024 | ≥ 20 | 91 | ≥ 20 | ≥ 50 | negative | ≥ 20 | ≥ 20
